From patent publication US3946018A, “1,4-Dihydro-3 (2H)-isoquinolinone derivatives” (priority 1973, dated 1976)
Where a name gives a salt, the structure may show the parent alone. Read-outs that look alike come from different tables or passages of the source.

Key:
[1] = test system: white mice; experiment: inhibition of pentamethylenetetrazole-provoked spasm; type: in vivo, white mice of both sexes; settings: Mus musculus, read-out: ED50 pentamethylenetetrazole
Method: The inhibiting effect on pentamethylenetetrazoleprovoked spasm was tested on groups each consisting of 12 individually caged, randomized mice, by the method of Orloff (Proc. Soc. Exp. Biol. Med. N.Y., 70, 254 /1949/). The pentamethylenetetrazole spasm threshold was determined by the slow (0.05 ml./10 sec.) intravenous administration of a 0.5 % pentamethylenetetrazole solution, and the influence of the compounds on the spasm threshold was examined. In every case, the tonic extension of the hind limbs was regarded as spasm.

[2] = in vivo; settings: mouse, po
Method: (§1) The pharmacological properties of the new compounds were tested on white mice of both sexes, weighing 16 to 24 g. The new compounds were administered orally through a metal stomach tube, in the form of a 5 per cent suspension in a medium containing Tween 80 as suspending agent.
The paralyzing effect of the compounds was tested on groups each consisting of 8 mice, by the rotarod test. The ED5o rotarod value corresponds to the dosis, which, one hour after the administration, causes 50 per cent of the test animals to fall down from the rotarod within 3 minutes. The neurotoxic activity was evaluated according to the method of Lichtfield and Wilcoxon.
(§2) For comparison various known and widely used pharmacons, namely phenobarbital (5-ethyl-5-phenylbarbituric acid), phenytoin (5,5-diphenylhydantoine) and trimethadion (3,5,5-trimethyl-2,4-oxazolidine-dione) were also tested under the same conditions.

[3] = acute oral toxicity (LD50) in mice; settings: mouse, in vivo
Method: (§3) The LD5o values of the compounds were determined on groups each consisting of 8 mice. The results were evaluated according to the method of Lichtfield and Wilcoxon (J. Pharmacol. exp. Therap. 96, 99 / 1949/).

[4] = test system: white mice; experiment: Maximum Electroshock Seizure Test (electroshock-inhibiting effect); type: in vivo, white mice of both sexes; settings: for Protective Index: ED50 rotarod divided by ED50 ES; for ED50: Mus musculus, read-out: ED50 ES
Method: as §1
The electroshock-inhibiting effect of the compounds was examined on groups each consisting of 10, individually caged mice. The anticonvulsive activity was tested by the "Maximum Electroshock Seizure Test" of Swinyard, et al. (Epilepsia 10, 107 /1969/), and the inhibition of the tonic extension of the hind limbs was evaluated. […] The results were evaluated according to the method of Lichtfield and Wilcoxon. The electroshock was provoked using corneal electrodes, under the following parameters: 50 Hz, 0.3 sec. 3 msec; the current intensity varied between 28 and 34 mA (a current intensity was maintained that was sufficient to provoke spasm in each of the 10 animals).
The activities of the compounds with protecting effect against electroshock were compared by the so-called protective index, which was calculated by dividing the individual ED5o rotarod values with the corresponding ED5o ES values. The greater this ratio, the more remote the dosis protecting against electroshock is from the dosis causing muscle relaxation.
as §2

[5] = test system: white mice; experiment: acute oral toxicity (LD50) in mice; settings: mouse, in vivo, po
Method: as §3

[6] = oral, mice, 3 h., 0.5 % pentamethylenetetrazole slow i.v., tonic extension of the hind limbs regarded as spasm
[7] = oral, mice, 3 h., inhibition of tonic extension of the hind limbs, protection of 50 % of animals

SMILES	ED50 [1, 6]	TD50 [2]	LD50 ([3]; oral, mice, read-out: LD50)	Protective Index [4]	ED50 [4, 7]	ED50 ([1]; po, 3 h)	TD50 ([2]; in vivo)	ED50 ([4]; po, 3 h)	LD50 ([3]; po)	LD50 [5]
CN1C(=O)OC(C)(C)C1=O [3,5,5-trimethyl-2,4-oxazolidine-dione, reference compound]	62 mg/kg	340 mg/kg	1750 mg/kg	0.77	440 mg/kg					
O=C1NC(=O)C(c2ccccc2)(c2ccccc2)N1 [5,5-diphenyl-hidantoine, 5,5-diphenylhydantoine, reference compound]	25 mg/kg	10 mg/kg	300 mg/kg	1.0	10 mg/kg					
CCC1(c2ccccc2)C(=O)NC(=O)NC1=O [5-ethyl-5-phenyl-barbituric acid, 5-ethyl-5-phenylbarbituric acid, reference compound]			180 mg/kg	2.5		15 mg/kg	38 mg/kg	15 mg/kg		
CCCNCC(=O)Nc1ccc(C2NC(=O)Cc3ccccc32)cc1 (centres unmarked) [Example 5, 1,4-Dihydro-1-(4'-/propylaminoacetyl/-amino-phenyl)-3(2H)-isoquinolinone]	50 mg/kg	490 mg/kg		24	21 mg/kg				~2000 mg/kg	
CCCNCC(=O)Nc1ccc(C2NC(=O)C(C)(C)c3ccccc32)cc1 (centres unmarked) [Example 6, 1,4-Dihydro-4,4-dimethyl-1-(4'-/propylaminoacetyl/-amino-phenyl)3-(2H)-isoquinolinone]	100 mg/kg	435 mg/kg		13.6	32 mg/kg				1600 mg/kg	
CCCNCC(=O)Nc1ccc(C2NC(=O)C(C)c3ccccc32)cc1 (centres unmarked) [Example 7, 1,4-Dihydro-4-methyl-1-(4'-/propylaminoacetyl/-aminophenyl)-3(2H)-isoquinolinone]	50 mg/kg	340 mg/kg		15.4	22 mg/kg					> 1600 mg/kg
CCCNCC(=O)Nc1ccc(C2NC(=O)C(C(C)C)c3ccccc32)cc1 (centres unmarked) [Example 8, 1,4-Dihydro-4-isopropyl-1-(4'-/propylaminoacetyl/-amino-phenyl)-3(2H)-isoquinolinone]	50 mg/kg	~50 mg/kg		~2.5	~20 mg/kg				600 to 800 mg/kg	
CCNCC(=O)Nc1ccc(C2NC(=O)Cc3ccccc32)cc1 (centres unmarked) [Example 9, 1,4-Dihydro-1-(4'-/ethylaminoacetyl/-amino-phenyl)-3(2H)-isoquinolinone]	50 mg/kg	520 mg/kg		51	10.2 mg/kg					> 1600 mg/kg
CCNCC(=O)Nc1ccc(C2NC(=O)C(C)(C)c3ccccc32)cc1 (centres unmarked) [Example 10, 1,4-Dihydro-1-(4'-/ethylaminoacetyl/-amino-phenyl)-4,4-dimethyl-3(2H)-isoquinolinone]	50 mg/kg	760 mg/kg		~2	> 300 mg/kg					> 2000 mg/kg
CNCC(=O)Nc1ccc(C2NC(=O)Cc3ccccc32)cc1 (centres unmarked) [Example 11, 1,4-Dihdryo-1-(4'-/methylaminoacetyl/-amino-phenyl)-3(2H)-isoquinolinone]	50 mg/kg	270 mg/kg		~12	22 mg/kg				~600 mg/kg	
CC(C)NCC(=O)Nc1ccc(C2NC(=O)Cc3ccccc32)cc1 (centres unmarked) [Example 12, 1,4-Dihydro-1-(4'-/isopropylaminoacetyl/-aminophenyl)-3(2H)-isoquinolinone]	100 mg/kg	270 mg/kg		26	10.5 mg/kg					> 1000 mg/kg
CNCC(=O)Nc1ccc(C2NC(=O)C(C)(C)c3ccccc32)cc1 (centres unmarked) [Example 13, 1,4-Dihydro-4,4-dimethyl-1-(4'-/methylaminoacetyl/-amino-phenyl)-3(2H)-isoquinolinone maleate]		~800 mg/kg		~32	25 mg/kg					> 2000 mg/kg
CC(C)NCC(=O)Nc1ccc(C2NC(=O)C(C)(C)c3ccccc32)cc1 (centres unmarked) [Example 14, 1,4-Dihydro-4,4-dimethyl-1-(4'-/isopropylaminoacetyl/-amino-phenyl)-3(2H)-isoqinolinone]		~1600 mg/kg		~59	27 mg/kg					> 2000 mg/kg
CCCCNCC(=O)Nc1ccc(C2NC(=O)C(C)(C)c3ccccc32)cc1 (centres unmarked) [Example 15, 1,4-Dihydro-1-(4'-/butylaminoacetyl/-amino-phenyl)-4,4-dimethyl-3(2H)-isoquinolinone]		~300 mg/kg		~10	29 mg/kg				> 1000 mg/kg	
CCN(CC)CC(=O)Nc1ccc(C2NC(=O)C(C)(C)c3ccccc32)cc1 (centres unmarked) [Example 16, 1,4-Dihydro-1-(4'-/N,N-diethylaminoacetyl/-amino-phenyl)-4,4-dimethyl-3(2H)-isoquinolinone]		~1300 mg/kg		~15	~88 mg/kg				~1600 mg/kg	
